≈ marks a conversion by molar mass, not a printed value.
Legend:
[1] = system: Rat1; assay: Antitumor activity at rat Rat1 cells expressing myr-p110alpha xenografted in athymic nude mouse assessed as T/C ratio at 20 mg/kg, po qd measured after 14 to 22 days; format: functional; details: time 14-22 day
[2] = Toxicity in athymic nude mouse xenografted with rat Rat1 cells expressing myr-p110alpha assessed as decrease in body weight at 40 mg/kg, po bid measured after 9 days; format: organism-based; details: in vivo, 216 h, time 9 day
[3] = Oral bioavailability in OF1 mouse plasma at 10 mg/kg measured upto 24 hrs by LC-MS/MS analysis; format: ADME, organism-based
[4] = Cmax in athymic nude mouse xenografted with rat Rat1 cells expressing myr-p110alpha at 3 mg/kg, po measured after 8 days by LC-MS/MS analysis; format: ADME, organism-based; set-up: time 8 day, dose 3 mg/kg, route po; details: in vivo
[5] = Cmax in athymic nude mouse xenografted with rat Rat1 cells expressing myr-p110alpha at 40 mg/kg, po measured after 8 days by LC-MS/MS analysis; format: ADME, organism-based; set-up: dose 40 mg/kg, time 8 day, route po; details: in vivo
[6] = Aqueous solubility of compound in buffer at pH 6.8 by HPLC analysis; format: physicochemical
[7] = target: Serine/threonine-protein kinase mTOR (Mus musculus, UniProt Q9JLN9); assay: Inhibition of mTOR in Tscl-/- null mouse MEF assessed as reduction on RPS6 phosphorylation at Ser235/236 residue by alpha-screen assay; format: cell-based
[8] = Effect on plasma insulin level in athymic nude mouse xenografted with rat Rat1 cells expressing myr-p110alpha at 20 mg/kg, po qd measured for 1 to 10 hrs by glucometer analysis; format: toxicity, organism-based; details: in vivo, time 1-10 hrs
[9] = Drug concentration in OF1 mouse blood at 1 mg/kg, iv measured at 5 mins post dose by LC-MS/MS analysis; format: ADME, organism-based; details: whole blood, read-out: Ct
[10] = Cmax in athymic nude mouse xenografted with rat Rat1 cells expressing myr-p110alpha at 10 mg/kg, po measured after 8 days by LC-MS/MS analysis; format: ADME, organism-based; set-up: dose 10 mg/kg, time 8 day, route po; details: in vivo
[11] = Dose normalized AUC(0 to Tlast) in athymic nude mouse xenografted with rat Rat1 cells expressing myr-p110alpha at 40 mg/kg, po measured after 8 days by LC-MS/MS analysis; format: ADME, organism-based; details: in vivo, 192 h, time 8 day
[12] = Apparent permeability in human Caco-2 cells assessed as Km by Michaelis-Menten based analysis; format: ADME, cell-based; details: read-out: Km(app)
[13] = Dose normalized AUC(0 to Tlast) in athymic nude mouse xenografted with rat Rat1 cells expressing myr-p110alpha at 20 mg/kg, po measured after 8 days by LC-MS/MS analysis; format: ADME, organism-based; details: in vivo, 192 h, time 8 day
[14] = Inhibition of wild type PI3K in human CAL-85-1 cells assessed as reduction in phosphorylation of AKT at Ser473 residue by Western blot analysis; format: cell-based
[15] = Half life in Sprague-Dawley rat at 3 mg/kg, po or iv measured upto 24 hrs by LC-MS/MS analysis; format: ADME, organism-based; details: in vivo
[16] = Tmax in beagle dog at 3 mg/kg, po measured upto 24 hrs by LC-MS/MS analysis; format: ADME, organism-based, Canis lupus familiaris; details: in vivo
[17] = Inhibition of wild type PI3K in human Hs-578T cells assessed as reduction in phosphorylation of AKT at Ser473 residue by Western blot analysis; format: cell-based
[18] = Tmax in beagle dog at 0.3 mg/kg,po or 0.1 mg/kg,iv measured upto 24 hrs by LC-MS/MS analysis; format: ADME, organism-based, Canis lupus familiaris; details: in vivo
[19] = Clast in athymic nude mouse xenografted with rat Rat1 cells expressing myr-p110alpha at 20 mg/kg, po measured after 8 days by LC-MS/MS analysis; format: ADME, organism-based; details: in vivo, time 8 day, read-out: Clast
[20] = Plasma protein binding in beagle dog plasma at 0.3 mg/kg,po or 0.1 mg/kg,iv measured after 4 hrs by rapid equilibrium dialysis method; format: ADME, organism-based, Canis lupus familiaris; details: read-out: PPB (converted)
[21] = Oral bioavailability in Sprague-Dawley rat at 20 mg/kg using crystalline form of sample; format: ADME, organism-based; details: in vivo
[22] = AUC(0 to Tlast) in athymic nude mouse xenografted with rat Rat1 cells expressing myr-p110alpha at 40 mg/kg, po measured after 8 days by LC-MS/MS analysis; format: ADME, organism-based; set-up: time 8 day, dose 40 mg/kg, route po; details: in vivo
[23] = Dose normalized AUC(0 to Tlast) in athymic nude mouse xenografted with rat Rat1 cells expressing myr-p110alpha at 10 mg/kg, po measured after 8 days by LC-MS/MS analysis; format: ADME, organism-based; details: in vivo, 192 h, time 8 day
[24] = Toxicity in athymic nude mouse xenografted with human HBRX2524 cells assessed as change in body weight at 40 mg/kg, po qd measured upto 16 days; format: organism-based; details: in vivo, 384 h, time < 16 day
[25] = Apparent permeability across basolateral to apical side in human Caco-2 cells at 10 uM measured after 120 mins by LC-MS/MS analysis; format: ADME, cell-based
[26] = Inhibition of wild type PI3K in human HCC1806 cells assessed as reduction in phosphorylation of AKT at Ser473 residue by Western blot analysis; format: cell-based
[27] = Dose normalized AUC(0 to Tlast) in athymic nude mouse xenografted with rat Rat1 cells expressing myr-p110alpha at 3 mg/kg, po measured after 8 days by LC-MS/MS analysis; format: ADME, organism-based; details: in vivo, 192 h, time 8 day
[28] = system: Rat1; assay: Antitumor activity at rat Rat1 cells expressing myr-p110alpha xenografted in athymic nude mouse assessed as tumor growth inhibition at 40 mg/kg, po bid measured after 9 days; format: functional; details: Rat1, 216 h, time 9 day
[29] = cells; details: Rattus norvegicus, Rat1, 1 h
[30] = Inhibition of wild type PI3K in human HCC1143 cells assessed as reduction in phosphorylation of AKT at Ser473 residue by Western blot analysis; format: cell-based
[31] = AUC(0 to Tlast) in athymic nude mouse xenografted with rat Rat1 cells expressing myr-p110alpha at 10 mg/kg, po measured after 8 days by LC-MS/MS analysis; format: ADME, organism-based; set-up: time 8 day, dose 10 mg/kg, route po; details: in vivo
[32] = Dose normalized AUC in OF1 mouse plasma at 3 mg/kg, iv measured upto 24 hrs by LC-MS/MS analysis; format: ADME, organism-based; details: in vivo
[33] = Tmax in beagle dog at 0.3 mg/kg, po measured upto 24 hrs by LC-MS/MS analysis; format: ADME, organism-based, Canis lupus familiaris; details: in vivo
[34] = Drug concentration in OF1 mouse brain at 1 mg/kg, iv measured at 1 hr post dose by LC-MS/MS analysis; format: ADME, organism-based; details: in vivo
[35] = system: Caco-2; assay: Nonspecific permeability coefficient in human Caco-2 cells at 0.25 to 30 uM measured after 120 mins by LC-MS/MS analysis; format: ADME, cell-based; details: caco-2, 2 h, dose 0.25-30 µM
[36] = Apparent permeability across apical to basolateral side in human Caco-2 cells at 10 uM measured after 120 mins by LC-MS/MS analysis; format: ADME, cell-based
[37] = cells; details: Homo sapiens, U-87 MG, 16 h
[38] = Clast in athymic nude mouse xenografted with rat Rat1 cells expressing myr-p110alpha at 10 mg/kg, po measured after 8 days by LC-MS/MS analysis; format: ADME, organism-based; details: in vivo, time 8 day, read-out: Clast
[39] = system: Rat1; assay: Antitumor activity at rat Rat1 cells expressing myr-p110alpha xenografted in athymic nude mouse assessed as tumor growth inhibition at 20 mg/kg, po bid measured after 9 days; format: functional; details: Rat1, 216 h, time 9 day

C[C@H]1OC(=O)N(c2nc(-c3cnc(N)nc3C(F)(F)F)cc(N3CCOCC3)n2)[C@H]1CO
T/C [1]: 0.04 | Activity [2]: Toxic | bioavailability [3]: 49% | Cmax [4]: 1480 nM | Cmax [5]: 8950 nM | solubility [6]: 29 µM (≈ 13.2 µg/mL) | IC50 [7]: 1630 nM | Activity [8]: Toxic | concentration at 5 min [9]: 3040 nM | Cmax [10]: 2280 nM | AUC/dose [11]: 1.35 µM·h | Km [12]: > 30 µM | AUC/dose [13]: 1.28 µM·h | IC50 [14]: 30 nM | half-life [15]: 3.3 h | Tmax [16]: 2 h | IC50 [17]: 27 nM | Tmax [18]: 1.3 h | concentration at 192 h [19]: 110 nM | fraction unbound at 4 h [20]: 0.29 | bioavailability [21]: 20% | AUC(0-t) at 192 h [22]: 54 µM·h | AUC/dose [23]: 1.57 µM·h | Activity [24]: Non-Toxic | Papp B→A at 2 h, 10 µM [25]: 19 ×10⁻⁶ cm/s | IC50 [26]: 204 nM | AUC/dose [27]: 1.82 µM·h | inhibition in vivo at 40 mg/kg [28]: > 80% | IC50 [29]: 26 nM | IC50 [30]: 26 nM | AUC(0-t) at 192 h [31]: 16 µM·h | AUC/dose [32]: 3580 nM·h | Tmax [33]: 1 h | Ct [34]: 31 pmol/g | Pm [35]: 73 10^-5 cm/min | Papp A→B at 2 h, 10 µM [36]: 8.9 ×10⁻⁶ cm/s | IC50 [37]: 100 nM | concentration at 192 h [38]: 140 nM | inhibition in vivo at 20 mg/kg [39]: > 80%

— ChEMBL document CHEMBL5137017, “Identification of NVP-CLR457 as an Orally Bioavailable Non-CNS-Penetrant pan-Class IA Phosphoinositol-3-Kinase Inhibitor” (J Med Chem, 2022)
